Assays:
Format in all cases: in vivo
[1] = tested on: blackgrass (Alopecurus myosuroides); experiment: Test C greenhouse herbicide test, pre- and postemergence
In short: (§1)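 Each species was treated both before emergence, in a loam–sand soil mix, and after emergence, as 1- to 4-leaf seedlings in peat-based potting medium. Plants stayed in the greenhouse 13 to 15 d, then were scored from 0 (no effect) to 100 (complete control) relative to controls.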

[2] = tested on: corn (Zea mays); experiment: as above
In short: as §1

[3] = tested on: crabgrass, large (large crabgrass, Digitaria sanguinalis); experiment: as above
In short: as §1

[4] = tested on: foxtail, giant (giant foxtail, Setaria faberii); experiment: as above
In short: as §1

[5] = tested on: johnsongrass (Sorghum halepense); experiment: as above
In short: as §1

[6] = tested on: lambsquarters (Chenopodium album); experiment: as above
In short: as §1

[7] = tested on: morningglory (Ipomoea coccinea); experiment: as above
In short: as §1

[8] = tested on: oilseed rape (Brassica napus); experiment: as above
In short: as §1

[9] = tested on: pigweed (Amaranthus retroflexus); experiment: as above
In short: as §1

[10] = tested on: ragweed (common ragweed, Ambrosia elatior); experiment: as above
In short: as §1

[11] = tested on: ryegrass, Italian (Italian ryegrass, Lolium multiflorum); experiment: as above
In short: as §1

[12] = tested on: soybean (Glycine max); experiment: as above
In short: as §1

[13] = tested on: velvetleaf (Abutilon theophrasti); experiment: as above
In short: as §1

[14] = tested on: waterhemp (common waterhemp, Amaranthus rudis); experiment: as above
In short: as §1

[15] = tested on: kochia (Kochia scoparia); experiment: Test C greenhouse herbicide test, postemergence; conditions: for Plant response rating, Kochia: Postemergence; for Kochia plant response rating: postemergence, 62 g ai/ha
In short: (§2)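 Plants grown in potting mix of peat moss, vermiculite, wetting agent and starter nutrients were sprayed postemergence at 2 to 18 cm height (1- to 4-leaf stage). After 13 to 15 d in the greenhouse, injury was visually rated against untreated controls on a 0–100 scale (0 no effect, 100 complete control).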

[16] = tested on: oat, wild (wild oat, Avena fatua); experiment: Test C greenhouse herbicide test, postemergence; conditions: for Plant response rating, Oat, Wild: Postemergence; for Oat, Wild plant response rating: postemergence, 62 g ai/ha
In short: as §2

[17] = Postemergence, 31 g ai/ha, 0 to 100 scale (0 no effect, 100 complete control)
[18] = Postemergence, 125 g ai/ha, scale 0 to 100, 0 is no effect, 100 is complete control
[19] = Postemergence, 250 g ai/ha, scale 0 to 100, 0 no effect, 100 complete control, 13 to 15 d
[20] = Preemergence, 31 g ai/ha, scale 0 to 100, 0 is no effect, 100 is complete control
[21] = Preemergence, 62 g ai/ha, scale 0 to 100, 0 is no effect, 100 is complete control
[22] = Preemergence, 125 g ai/ha, scale 0 to 100, 0 is no effect, 100 is complete control
[23] = Preemergence, 250 g ai/ha, scale 0 to 100 (0 no effect, 100 complete control)
[24] = postemergence, 62 g ai/ha, scale 0 to 100, 0 no effect, 100 complete control
[25] = 125 g ai/ha, scale 0 to 100, 0 is no effect, 100 is complete control
[26] = 250 g ai/ha, scale 0 to 100, 0 no effect, 100 complete control, 13 to 15 d
[27] = scale 0 to 100, 0 no effect, 100 complete control

Compound: CC(=O)Oc1c(C)nn(C)c(=O)c1-c1ccc(F)c2ccccc12 [Compound 90]
- Blackgrass plant response rating [1, 17]: 10
- Plant response rating, Blackgrass [1, 18]: 25
- Plant response rating, Blackgrass [1, 19]: 40
- Plant response rating, Blackgrass [1, 20]: 25
- Plant response rating, Blackgrass [1, 21]: 40
- Plant response rating, Blackgrass [1, 22]: 50
- Blackgrass plant response rating [1, 23]: 55
- Blackgrass plant response rating [1, 24]: 15
- Corn plant response rating [2, 17]: 5
- Plant response rating, Corn [2, 18]: 10
- Plant response rating, Corn [2, 19]: 25
- Plant response rating, Corn [2, 20]: 0
- Plant response rating, Corn [2, 21]: 0
- Plant response rating, Corn [2, 22]: 5
- Corn plant response rating [2, 23]: 30
- Corn plant response rating [2, 24]: 10
- Plant response rating, Crabgrass, Large [3, 18]: 35
- Plant response rating, Crabgrass, Large [3, 19]: 75
- Plant response rating, Crabgrass, Large [3, 20]: 35
- Plant response rating, Crabgrass, Large [3, 21]: 70
- Plant response rating, Crabgrass, Large [3, 22]: 75
- Crabgrass, Large plant response rating [3, 23]: 85
- Crabgrass, Large plant response rating [3, 24]: 15
- Plant response rating, Foxtail, Giant [4, 18]: 55
- Plant response rating, Foxtail, Giant [4, 19]: 75
- Plant response rating, Foxtail, Giant [4, 20]: 75
- Plant response rating, Foxtail, Giant [4, 21]: 75
- Plant response rating, Foxtail, Giant [4, 22]: 90
- Foxtail, Giant plant response rating [4, 23]: 95
- Foxtail, Giant plant response rating [4, 24]: 25
- Plant response rating, Johnsongrass [5, 18]: 10
- Plant response rating, Johnsongrass [5, 19]: 20
- Plant response rating, Johnsongrass [5, 20]: 50
- Plant response rating, Johnsongrass [5, 21]: 55
- Plant response rating, Johnsongrass [5, 22]: 60
- Johnsongrass plant response rating [5, 23]: 65
- Johnsongrass plant response rating [5, 24]: 10
- Plant response rating, Lambsquarters [6, 18]: 98
- Plant response rating, Lambsquarters [6, 19]: 100
- Plant response rating, Lambsquarters [6, 20]: 75
- Plant response rating, Lambsquarters [6, 21]: 80
- Plant response rating, Lambsquarters [6, 22]: 85
- Lambsquarters plant response rating [6, 23]: 100
- Lambsquarters plant response rating [6, 24]: 98
- Plant response rating, Morningglory [7, 18]: 100
- Plant response rating, Morningglory [7, 19]: 100
- Plant response rating, Morningglory [7, 20]: 85
- Plant response rating, Morningglory [7, 21]: 85
- Plant response rating, Morningglory [7, 22]: 98
- Morningglory plant response rating [7, 23]: 98
- Morningglory plant response rating [7, 24]: 100
- Plant response rating, Oilseed Rape [8, 18]: 0
- Plant response rating, Oilseed Rape [8, 19]: 5
- Plant response rating, Oilseed Rape [8, 20]: 30
- Plant response rating, Oilseed Rape [8, 21]: 35
- Plant response rating, Oilseed Rape [8, 22]: 50
- Oilseed Rape plant response rating [8, 23]: 90
- Oilseed Rape plant response rating [8, 24]: 0
- Plant response rating, Pigweed [9, 18]: 95
- Plant response rating, Pigweed [9, 19]: 100
- Plant response rating, Pigweed [9, 20]: 100
- Plant response rating, Pigweed [9, 21]: 100
- Plant response rating, Pigweed [9, 22]: 100
- Pigweed plant response rating [9, 23]: 100
- Pigweed plant response rating [9, 24]: 80
- Plant response rating, Ragweed [10, 18]: 95
- Plant response rating, Ragweed [10, 19]: 100
- Plant response rating, Ragweed [10, 20]: 80
- Plant response rating, Ragweed [10, 21]: 90
- Plant response rating, Ragweed [10, 22]: 85
- Ragweed plant response rating [10, 23]: 95
- Ragweed plant response rating [10, 24]: 85
- Plant response rating, Ryegrass, Italian [11, 18]: 90
- Plant response rating, Ryegrass, Italian [11, 19]: 90
- Plant response rating, Ryegrass, Italian [11, 20]: 90
- Plant response rating, Ryegrass, Italian [11, 21]: 95
- Plant response rating, Ryegrass, Italian [11, 22]: 95
- Ryegrass, Italian plant response rating [11, 23]: 95
- Ryegrass, Italian plant response rating [11, 24]: 90
- Plant response rating, Soybean [12, 18]: 55
- Plant response rating, Soybean [12, 19]: 70
- Plant response rating, Soybean [12, 20]: 0
- Plant response rating, Soybean [12, 21]: 0
- Plant response rating, Soybean [12, 22]: 10
- Soybean plant response rating [12, 23]: 100
- Soybean plant response rating [12, 24]: 50
- Plant response rating, Velvetleaf [13, 18]: 98
- Plant response rating, Velvetleaf [13, 19]: 98
- Plant response rating, Velvetleaf [13, 20]: 85
- Plant response rating, Velvetleaf [13, 21]: 90
- Plant response rating, Velvetleaf [13, 22]: 95
- Velvetleaf plant response rating [13, 23]: 95
- Velvetleaf plant response rating [13, 24]: 75
- Plant response rating, Waterhemp [14, 18]: 100
- Plant response rating, Waterhemp [14, 19]: 100
- Plant response rating, Waterhemp [14, 20]: 75
- Plant response rating, Waterhemp [14, 21]: 90
- Plant response rating, Waterhemp [14, 22]: 100
- Waterhemp plant response rating [14, 23]: 100
- Waterhemp plant response rating [14, 24]: 100
- Plant response rating, Kochia [15, 25]: 100
- Plant response rating, Kochia [15, 26]: 100
- Kochia plant response rating [15, 27]: 100
- Plant response rating, Oat, Wild [16, 25]: 90
- Plant response rating, Oat, Wild [16, 26]: 95
- Oat, Wild plant response rating [16, 27]: 70

Compound: CC(=O)Oc1c(C#N)nn(C)c(=O)c1-c1c(C)ccc2ccccc12 [Compound 98]
- Blackgrass plant response rating [1, 17]: 5
- Plant response rating, Blackgrass [1, 18]: 50
- Plant response rating, Blackgrass [1, 19]: 70
- Blackgrass plant response rating [1, 24]: 30
- Corn plant response rating [2, 17]: 5
- Plant response rating, Corn [2, 18]: 15
- Plant response rating, Corn [2, 19]: 15
- Corn plant response rating [2, 24]: 0
- Plant response rating, Crabgrass, Large [3, 18]: 45
- Plant response rating, Crabgrass, Large [3, 19]: 70
- Crabgrass, Large plant response rating [3, 24]: 25
- Plant response rating, Foxtail, Giant [4, 18]: 98
- Plant response rating, Foxtail, Giant [4, 19]: 100
- Foxtail, Giant plant response rating [4, 24]: 95
- Plant response rating, Johnsongrass [5, 18]: 10
- Plant response rating, Johnsongrass [5, 19]: 10
- Johnsongrass plant response rating [5, 24]: 5
- Plant response rating, Lambsquarters [6, 18]: 100
- Plant response rating, Lambsquarters [6, 19]: 100
- Lambsquarters plant response rating [6, 24]: 100
- Plant response rating, Morningglory [7, 18]: 100
- Plant response rating, Morningglory [7, 19]: 100
- Morningglory plant response rating [7, 24]: 100
- Plant response rating, Oilseed Rape [8, 18]: 10
- Plant response rating, Oilseed Rape [8, 19]: 25
- Oilseed Rape plant response rating [8, 24]: 0
- Plant response rating, Pigweed [9, 18]: 100
- Plant response rating, Pigweed [9, 19]: 100
- Pigweed plant response rating [9, 24]: 100
- Plant response rating, Ragweed [10, 18]: 98
- Plant response rating, Ragweed [10, 19]: 100
- Ragweed plant response rating [10, 24]: 98
- Plant response rating, Ryegrass, Italian [11, 18]: 65
- Plant response rating, Ryegrass, Italian [11, 19]: 85
- Ryegrass, Italian plant response rating [11, 24]: 45
- Plant response rating, Soybean [12, 18]: 25
- Plant response rating, Soybean [12, 19]: 25
- Soybean plant response rating [12, 24]: 10
- Plant response rating, Velvetleaf [13, 18]: 75
- Plant response rating, Velvetleaf [13, 19]: 100
- Velvetleaf plant response rating [13, 24]: 70
- Plant response rating, Waterhemp [14, 18]: 100
- Plant response rating, Waterhemp [14, 19]: 100
- Waterhemp plant response rating [14, 24]: 100
- Plant response rating, Kochia [15, 25]: 60
- Plant response rating, Kochia [15, 26]: 80
- Kochia plant response rating [15, 27]: 20
- Plant response rating, Oat, Wild [16, 25]: 95
- Plant response rating, Oat, Wild [16, 26]: 100
- Oat, Wild plant response rating [16, 27]: 80

Compound: COc1nn(C)c(=O)c(-c2c(C)sc3ccc(Cl)cc23)c1O [Compound 100]
- Blackgrass plant response rating [1, 17]: 5
- Plant response rating, Blackgrass [1, 18]: 5
- Plant response rating, Blackgrass [1, 19]: 25
- Blackgrass plant response rating [1, 24]: 5
- Corn plant response rating [2, 17]: 5
- Plant response rating, Corn [2, 18]: 5
- Plant response rating, Corn [2, 19]: 10
- Corn plant response rating [2, 24]: 10
- Plant response rating, Crabgrass, Large [3, 18]: 25
- Plant response rating, Crabgrass, Large [3, 19]: 15
- Crabgrass, Large plant response rating [3, 24]: 15
- Plant response rating, Foxtail, Giant [4, 18]: 75
- Plant response rating, Foxtail, Giant [4, 19]: 90
- Foxtail, Giant plant response rating [4, 24]: 45
- Plant response rating, Johnsongrass [5, 18]: 5
- Plant response rating, Johnsongrass [5, 19]: 10
- Johnsongrass plant response rating [5, 24]: 0
- Plant response rating, Lambsquarters [6, 18]: 98
- Plant response rating, Lambsquarters [6, 19]: 98
- Lambsquarters plant response rating [6, 24]: 90
- Plant response rating, Morningglory [7, 18]: 100
- Plant response rating, Morningglory [7, 19]: 100
- Morningglory plant response rating [7, 24]: 100
- Plant response rating, Oilseed Rape [8, 18]: 10
- Plant response rating, Oilseed Rape [8, 19]: 90
- Oilseed Rape plant response rating [8, 24]: 60
- Plant response rating, Pigweed [9, 18]: 100
- Plant response rating, Pigweed [9, 19]: 100
- Pigweed plant response rating [9, 24]: 85
- Plant response rating, Ragweed [10, 18]: 95
- Plant response rating, Ragweed [10, 19]: 98
- Ragweed plant response rating [10, 24]: 95
- Plant response rating, Ryegrass, Italian [11, 18]: 90
- Plant response rating, Ryegrass, Italian [11, 19]: 95
- Ryegrass, Italian plant response rating [11, 24]: 90
- Plant response rating, Soybean [12, 18]: 5
- Plant response rating, Soybean [12, 19]: 5
- Soybean plant response rating [12, 24]: 5
- Plant response rating, Velvetleaf [13, 18]: 40
- Plant response rating, Velvetleaf [13, 19]: 65
- Velvetleaf plant response rating [13, 24]: 50
- Plant response rating, Waterhemp [14, 18]: 95
- Plant response rating, Waterhemp [14, 19]: 98
- Waterhemp plant response rating [14, 24]: 90
- Plant response rating, Kochia [15, 25]: 95
- Plant response rating, Kochia [15, 26]: 95
- Kochia plant response rating [15, 27]: 90
- Plant response rating, Oat, Wild [16, 25]: 85
- Plant response rating, Oat, Wild [16, 26]: 95
- Oat, Wild plant response rating [16, 27]: 70
